The results in this text go back to patent US10793514B2, “Glutamine transport inhibitors and methods for treating cancer” (Vanderbilt University, priority 2016, dated 2020).

The structures appear in SMILES notation. Entries after “also recorded” stand apart in the source; their conditions may differ.

One data set has as its system HCC1806 xenografts. The data set can be described thus: HCC1806 xenograft 10-day exposure study. The format is in vivo, mouse. The conditions noted are these: 75 mg/kg per day, 10 days. Here is the method: (§1) Tissues were sectioned (5 μm thickness) and stained for pS6 (Cell Signaling, #4858) and caspase 3 (Cell Signaling #9661). Tissue slides were imaged at 20× magnification.
(§2) For in vivo studies, cell-line xenograft tumors were propagated in 6-week old, female athymic nude mice from immortalized cell lines. For HCC-1806 (10×10^6 cells), HCT-116 (5×10^6), and HT29 (10×10^6) cells were injected. Palpable tumors were typically visible within 2-3 weeks. For imaging studies (HCC-1806), tumors were propagated to approximately 500 mm^3. For treatment studies (HCT-116, HT29) tumors were propagated to approximately 200 mm^3 prior to therapy and were randomly assigned into treated and untreated cohorts. For generating the PDX, primary tumor tissue was obtained form a patient at Vanderbilt University Medical Center under an IRB approved protocol. The tumor tissue was genotyped within the VANTAGE core facility. Xenograft was generated as previously described 41. Briefly, tumor tissues were sectioned into approximately 125 cubic millimeter pieces then implanted subcutaneously without further manipulation. […] Tumor volumes were measured manually using calipers every third day and quantified using the formula V=W·L·(H/2).

Data set [1] is described as follows: Tolerability in chronic exposure studies (body mass, liver pathology). The data set is classed as in vivo, mouse. The conditions noted are these: 75 mg/kg per day, 21 days, vs vehicle.
Another data set concerns HCC1806 cells. The data set can be described thus: Fluorescence redox ratio imaging. The data set is classed as cell-based, human. The note with it: 10 μM, 48 h. The method, then: HCC1806 cells were plated on 35-mm glass-bottom petri dishes for imaging (MatTek Corp). Fluorescence intensity and lifetime images were acquired using a custom-built multiphoton fluorescence lifetime system (Bruker), with a 40× oil-immersion objective (1.3 NA) and an inverted microscope (TiE, Nikon). A titanium:sapphire laser (Chameleon Ultra II, Coherent) was tuned to 750 nm for two-photon excitation of NAD(P)H and tuned to 890 nm for two-photon excitation of FAD. A 440/80 nm bandpass filter was used to collect NAD(P)H fluorescence emission, and a 550/100 nm was used to collect FAD emission. […] A GaAsP PMT (H7422P-40, Hamamatsu) detected emitted photons. […] Time-correlated single photon counting electronics (SPC-150, Becker and Hickl) were used to acquire fluorescence decay curves. […] Fluorescence lifetime validation was performed by imaging a fluorescent bead (Polysciences Inc) and confirming that the measured lifetime (2.1 ns) agreed with previously published values^22. […]
An automated cell segmentation routine was written using CellProfiler to identify individual cell cytoplasms and extract average fluorescence intensity and fluorescence lifetime values for each cell in the field of view. Intensity values for each pixel were calculated by integrating the decay curve for each pixel. […]

Data set [2] concerns activated CD8-positive T-cells. As to the kind of experiment: Viability and activation of CD8-positive T-cells. The data set is classed as cell-based, mouse. The note with it: 96 hrs. The method, then: CD8+ cells were isolated from the spleens of 8-12 week old C57BL6 mice on standard chow from Jackson Labs maintained under IACUC approved protocols. CD8+ cells were stained using the proliferative dye Cell Trace Violet (LifeTech) before stimulation as per manufacturer's protocol. Cells were stimulated on 5 ug/mL anti-CD3/CD28-coated plates in media containing IL-2 (‘activated’, 10 ng/mL), or in tissue-culture treated plates in media containing IL-7 (‘naive’, 1 ng/mL) for up to 7 days. Cells were removed at each day described for viability, cell counts, proliferation, and surface markers of activation. Cell surface markers used were CD62L-FITC and APC, CD44-PECy5 and CD25-PE. All data were acquired in triplicate on a MacsQuant Analyzer (Miltenyi Biotec) and analyzed using FlowJo V10 (TreeStar software).

Data set [3] has as its system HT29 (BRAF V600E) cell-line xenografts. The data set can be described thus: HT29 xenograft chronic exposure study. The data set is classed as in vivo, mouse. The conditions noted are these: 75 mg/kg per day, 21 days. Here is the method: as §1, §2
The next data set concerns human CRC cell lines. As to the kind of experiment: Follow-up viability screening (MultiTox Glo, sulforhodamine B). The format is cell-based. The method, then: Viability was evaluated using a commercially available chemiluminescent reagents (CellTiter-Glo, Promega Corp. G7572; MultiTox Glo, Promega Corp. G9270) in 96-well plate format according to the manufacturers protocol. […] Subsequently, CellTiter-Glo reagent was added and the plates were read using a plate reader (BioTek Synergy 4) with standard settings. Each set of conditions was replicated at least three times, technically and biologically. Error is reported as standard deviation (SD). The sulforhodamine B assay was run analogously to the above assays as previously described^19.

For orientation: EC50 means the concentration at which the effect is half-maximal. On to `Cc1cccc(COc2ccccc2CN(CCC(N)C(=O)O)Cc2ccccc2OCc2cccc(C)c2)c1` (stereo not drawn) [Compound V-9302], for which, in the data set on HCC1806 xenografts, the tumor growth result is listed as “tumor growth arrest”; the tumor response markers result was “elevated LC3B and cleaved caspase 3, along with decreased pAKT (Ser473) and pS6”. The liver pathology result in data set [1] (athymic nude mice, H&E) is listed as “similar; also recorded: no discernible difference”. For the same compound, the weight loss result in data set [1] (chronic exposure) was “no significant weight loss”. The “fluorescent lifetimes of NAD(P)H and FAD” value with HCC1806 cells was “decreased the fluorescent lifetimes of both NAD(P)H and FAD”. In data set [2] (CD44 expression), the T-cell activation result is recorded as “not impaired”. The T-cell viability result in data set [2] (in vitro, relative to vehicle) is reported as “unchanged relative to vehicle”. Further, in data set [3] (IHC), the “cleaved caspase 3 in tumor tissue” value is listed as “elevated levels of cleaved caspase 3” and the “pS6 in tumor tissue” value is reported as “significantly decreased pS6”. For the same compound, in data set [3] (vs vehicle), the tumor growth entry is given as “prevented tumor growth”. Also, in the data set with human CRC cell lines (25 μM, 48 h, three independent assays lacking ATP-dependency), the “cellular viability and cell death” value was “reduced cellular viability and increased cell death”. Besides, the EC50 in the data set with human CRC cell lines (four human CRC cell lines, 48 hrs, MultiTox Glo, read-out: EC50, cellular viability) lay in the range of 9 to 15 µM.
